Laboratory results published in US10906910B2, “Substituted bicyclic pyrimidine compounds with tubulin and multiple receptor inhibition” (Duquesne University of the Holy Spirit, priority 2014, dated 2021).

Columns and labels:
MDA-MB-468 = assay: NCI 60 panel, Breast Cancer MDA-MB-468; assay type: cell-based; settings: Homo sapiens, read-out: Tumor cell inhibitory activity (NCI) GI50
SF-268 = assay: NCI 60 panel, CNS Cancer SF-268; assay type: cell-based; settings: Homo sapiens, read-out: Tumor cell inhibitory activity (NCI) GI50
HOP-92 = assay: NCI 60 panel, NSCLC HOP-92; assay type: cell-based; settings: Homo sapiens, read-out: Tumor cell inhibitory activity (NCI) GI50
A498 = assay: NCI 60 panel, Renal Cancer A498; assay type: cell-based; settings: Homo sapiens, read-out: Tumor cell inhibitory activity (NCI) GI50
SR = assay: NCI 60 panel, Leukemia SR; assay type: cell-based; settings: Homo sapiens, read-out: Tumor cell inhibitory activity (NCI) GI50
CAKI-1 = assay: NCI 60 panel, Renal Cancer CAKI-1; assay type: cell-based; settings: Homo sapiens, read-out: Tumor cell inhibitory activity (NCI) GI50
CCRF-CEM = assay: NCI 60 panel, Leukemia CCRF-CEM; assay type: cell-based; settings: Homo sapiens, read-out: Tumor cell inhibitory activity (NCI) GI50
PDGFRβ = PDGFRβ (Homo sapiens, UniProt P09619); assay: PDGFRβ kinase inhibition, whole-cell assay; assay type: cell-based
Sequence of PDGFRβ (P09619 33-1106, species assumed): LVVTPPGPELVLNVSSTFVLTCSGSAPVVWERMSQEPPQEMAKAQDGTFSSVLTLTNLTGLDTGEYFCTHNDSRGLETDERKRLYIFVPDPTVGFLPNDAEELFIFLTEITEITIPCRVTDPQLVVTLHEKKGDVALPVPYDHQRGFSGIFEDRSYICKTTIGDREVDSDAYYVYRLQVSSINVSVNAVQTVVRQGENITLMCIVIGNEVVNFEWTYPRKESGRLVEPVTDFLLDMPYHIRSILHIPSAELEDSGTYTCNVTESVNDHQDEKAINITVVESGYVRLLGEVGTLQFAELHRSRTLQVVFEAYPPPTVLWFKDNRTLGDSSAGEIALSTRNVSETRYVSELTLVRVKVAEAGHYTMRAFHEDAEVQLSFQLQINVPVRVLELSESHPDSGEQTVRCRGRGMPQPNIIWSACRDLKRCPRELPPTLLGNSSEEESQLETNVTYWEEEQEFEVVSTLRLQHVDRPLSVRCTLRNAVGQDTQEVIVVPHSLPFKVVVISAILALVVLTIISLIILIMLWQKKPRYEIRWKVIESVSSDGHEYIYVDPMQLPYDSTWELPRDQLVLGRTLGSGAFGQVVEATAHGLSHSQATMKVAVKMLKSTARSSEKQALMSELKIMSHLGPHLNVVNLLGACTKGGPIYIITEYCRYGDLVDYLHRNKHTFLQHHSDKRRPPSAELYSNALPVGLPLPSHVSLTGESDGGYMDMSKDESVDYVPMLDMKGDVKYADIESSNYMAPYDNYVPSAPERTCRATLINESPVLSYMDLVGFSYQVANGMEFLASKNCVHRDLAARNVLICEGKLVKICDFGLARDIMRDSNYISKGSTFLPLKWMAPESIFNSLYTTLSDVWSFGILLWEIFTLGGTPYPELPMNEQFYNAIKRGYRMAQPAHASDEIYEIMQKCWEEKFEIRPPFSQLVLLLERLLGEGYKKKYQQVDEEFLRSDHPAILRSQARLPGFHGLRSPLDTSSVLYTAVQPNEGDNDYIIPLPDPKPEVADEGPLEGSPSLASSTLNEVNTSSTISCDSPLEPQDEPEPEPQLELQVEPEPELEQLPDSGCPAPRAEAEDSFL

SF-539 = assay: NCI 60 panel, CNS Cancer SF-539; assay type: cell-based; settings: Homo sapiens, read-out: Tumor cell inhibitory activity (NCI) GI50
MDA-MB-435 = assay: NCI 60 panel, Melanoma MDA-MB-435; assay type: cell-based; settings: Homo sapiens, read-out: Tumor cell inhibitory activity (NCI) GI50
HT29 = assay: NCI 60 panel, Colon Cancer HT29; assay type: cell-based; settings: Homo sapiens, HT-29, read-out: Tumor cell inhibitory activity (NCI) GI50
EGFR = EGFR (Homo sapiens, UniProt P00533); assay: EGFR kinase inhibition, whole-cell assay; assay type: cell-based; settings: read-out: kinase inhibition IC50 [whole-cell assays] EGFR
Sequence of EGFR (P00533 25-1210, species assumed): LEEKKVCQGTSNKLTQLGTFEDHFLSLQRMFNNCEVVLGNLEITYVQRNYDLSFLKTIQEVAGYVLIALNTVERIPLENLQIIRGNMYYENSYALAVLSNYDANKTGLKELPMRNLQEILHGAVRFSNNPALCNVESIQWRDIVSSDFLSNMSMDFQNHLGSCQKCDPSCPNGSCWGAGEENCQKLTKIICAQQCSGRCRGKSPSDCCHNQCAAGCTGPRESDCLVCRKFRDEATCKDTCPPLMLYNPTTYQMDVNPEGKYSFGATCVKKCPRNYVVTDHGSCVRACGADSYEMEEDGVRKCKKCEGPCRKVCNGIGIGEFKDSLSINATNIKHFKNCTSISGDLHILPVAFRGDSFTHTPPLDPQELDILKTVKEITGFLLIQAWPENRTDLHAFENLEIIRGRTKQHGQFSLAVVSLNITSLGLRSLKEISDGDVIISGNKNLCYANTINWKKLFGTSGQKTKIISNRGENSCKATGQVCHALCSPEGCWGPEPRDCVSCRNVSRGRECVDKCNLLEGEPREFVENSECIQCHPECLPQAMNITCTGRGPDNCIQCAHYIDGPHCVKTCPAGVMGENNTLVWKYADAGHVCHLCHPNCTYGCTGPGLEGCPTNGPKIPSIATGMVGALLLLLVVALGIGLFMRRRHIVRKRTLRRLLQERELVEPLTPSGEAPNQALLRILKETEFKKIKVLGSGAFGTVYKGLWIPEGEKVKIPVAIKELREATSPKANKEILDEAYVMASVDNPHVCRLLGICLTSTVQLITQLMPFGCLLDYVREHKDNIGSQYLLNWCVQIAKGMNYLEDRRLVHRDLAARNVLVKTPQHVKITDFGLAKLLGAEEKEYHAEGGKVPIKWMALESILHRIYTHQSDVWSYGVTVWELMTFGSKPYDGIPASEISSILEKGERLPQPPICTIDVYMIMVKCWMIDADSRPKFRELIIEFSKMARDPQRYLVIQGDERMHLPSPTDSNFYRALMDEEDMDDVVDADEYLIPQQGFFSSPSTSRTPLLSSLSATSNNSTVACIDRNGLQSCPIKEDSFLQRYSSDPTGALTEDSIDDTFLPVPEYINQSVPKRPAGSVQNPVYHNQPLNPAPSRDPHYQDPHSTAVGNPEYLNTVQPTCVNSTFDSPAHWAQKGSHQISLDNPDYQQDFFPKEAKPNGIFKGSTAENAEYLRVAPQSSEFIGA

SN12C = assay: NCI 60 panel, Renal Cancer SN12C; assay type: cell-based; settings: Homo sapiens, read-out: Tumor cell inhibitory activity (NCI) GI50
OVCAR-8 = assay: NCI 60 panel, Ovarian cancer OVCAR-8; assay type: cell-based; settings: Homo sapiens, read-out: Tumor cell inhibitory activity (NCI) GI50
NCI-H522 = assay: NCI 60 panel, NSCLC NCI-H522; assay type: cell-based; settings: Homo sapiens, read-out: Tumor cell inhibitory activity (NCI) GI50
MCF7 = assay: NCI 60 panel, Breast Cancer MCF7; assay type: cell-based; settings: Homo sapiens, read-out: Tumor cell inhibitory activity (NCI) GI50
KM12 = assay: NCI 60 panel, Colon Cancer KM12; assay type: cell-based; settings: Homo sapiens, read-out: Tumor cell inhibitory activity (NCI) GI50
wild type HeLa cells = assay: HeLa cytotoxicity, wild type; assay type: cell-based; settings: Homo sapiens
HCC-2998 = assay: NCI 60 panel, Colon Cancer HCC-2998; assay type: cell-based; settings: Homo sapiens, read-out: Tumor cell inhibitory activity (NCI) GI50
DU-145 = assay: NCI 60 panel, Prostate Cancer DU-145; assay type: cell-based; settings: Homo sapiens, read-out: Tumor cell inhibitory activity (NCI) GI50
SK-MEL-2 = assay: NCI 60 panel, Melanoma SK-MEL-2; assay type: cell-based; settings: Homo sapiens, read-out: Tumor cell inhibitory activity (NCI) GI50
OVCAR-5 = assay: NCI 60 panel, Ovarian cancer OVCAR-5; assay type: cell-based; settings: Homo sapiens, read-out: Tumor cell inhibitory activity (NCI) GI50
[1] = test system: blood vessel formation in the chicken chorioallantoic membrane (CAM); assay: chicken chorioallantoic membrane (CAM) antiangiogenic activity assay; assay type: in vivo; settings: Gallus gallus
LOX IMVI = assay: NCI 60 panel, Melanoma LOX IMVI; assay type: cell-based; settings: Homo sapiens, read-out: Tumor cell inhibitory activity (NCI) GI50
SK-MEL-28 = assay: NCI 60 panel, Melanoma SK-MEL-28; assay type: cell-based; settings: Homo sapiens, read-out: Tumor cell inhibitory activity (NCI) GI50
NCI-H23 = assay: NCI 60 panel, NSCLC NCI-H23; assay type: cell-based; settings: Homo sapiens, read-out: Tumor cell inhibitory activity (NCI) GI50
RPMI-8226 = assay: NCI 60 panel, Leukemia RPMI-8226; assay type: cell-based; settings: Homo sapiens, read-out: Tumor cell inhibitory activity (NCI) GI50
OVCAR-3 = assay: NCI 60 panel, Ovarian cancer OVCAR-3; assay type: cell-based; settings: Homo sapiens, read-out: Tumor cell inhibitory activity (NCI) GI50
HS 578T = assay: NCI 60 panel, Breast Cancer HS 578T; assay type: cell-based; settings: Homo sapiens, read-out: Tumor cell inhibitory activity (NCI) GI50
ACHN = assay: NCI 60 panel, Renal Cancer ACHN; assay type: cell-based; settings: Homo sapiens, read-out: Tumor cell inhibitory activity (NCI) GI50
SF-295 = assay: NCI 60 panel, CNS Cancer SF-295; assay type: cell-based; settings: Homo sapiens, read-out: Tumor cell inhibitory activity (NCI) GI50
UO-31 = assay: NCI 60 panel, Renal Cancer UO-31; assay type: cell-based; settings: Homo sapiens, read-out: Tumor cell inhibitory activity (NCI) GI50
BT-549 = assay: NCI 60 panel, Breast Cancer BT-549; assay type: cell-based; settings: Homo sapiens, read-out: Tumor cell inhibitory activity (NCI) GI50
786-0 = assay: NCI 60 panel, Renal Cancer 786-0; assay type: cell-based; settings: Homo sapiens, read-out: Tumor cell inhibitory activity (NCI) GI50
U251 = assay: NCI 60 panel, CNS Cancer U251; assay type: cell-based; settings: Homo sapiens, U-251, read-out: Tumor cell inhibitory activity (NCI) GI50
PC-3 = assay: NCI 60 panel, Prostate Cancer PC-3; assay type: cell-based; settings: Homo sapiens, read-out: Tumor cell inhibitory activity (NCI) GI50
VEGFR2 = VEGFR2 (Homo sapiens, UniProt P35968); assay: VEGFR2 kinase inhibition, whole-cell assay; assay type: cell-based; settings: read-out: kinase inhibition IC50 [whole-cell assays] VEGFR2
Sequence of VEGFR2 (P35968 20-1356, species assumed): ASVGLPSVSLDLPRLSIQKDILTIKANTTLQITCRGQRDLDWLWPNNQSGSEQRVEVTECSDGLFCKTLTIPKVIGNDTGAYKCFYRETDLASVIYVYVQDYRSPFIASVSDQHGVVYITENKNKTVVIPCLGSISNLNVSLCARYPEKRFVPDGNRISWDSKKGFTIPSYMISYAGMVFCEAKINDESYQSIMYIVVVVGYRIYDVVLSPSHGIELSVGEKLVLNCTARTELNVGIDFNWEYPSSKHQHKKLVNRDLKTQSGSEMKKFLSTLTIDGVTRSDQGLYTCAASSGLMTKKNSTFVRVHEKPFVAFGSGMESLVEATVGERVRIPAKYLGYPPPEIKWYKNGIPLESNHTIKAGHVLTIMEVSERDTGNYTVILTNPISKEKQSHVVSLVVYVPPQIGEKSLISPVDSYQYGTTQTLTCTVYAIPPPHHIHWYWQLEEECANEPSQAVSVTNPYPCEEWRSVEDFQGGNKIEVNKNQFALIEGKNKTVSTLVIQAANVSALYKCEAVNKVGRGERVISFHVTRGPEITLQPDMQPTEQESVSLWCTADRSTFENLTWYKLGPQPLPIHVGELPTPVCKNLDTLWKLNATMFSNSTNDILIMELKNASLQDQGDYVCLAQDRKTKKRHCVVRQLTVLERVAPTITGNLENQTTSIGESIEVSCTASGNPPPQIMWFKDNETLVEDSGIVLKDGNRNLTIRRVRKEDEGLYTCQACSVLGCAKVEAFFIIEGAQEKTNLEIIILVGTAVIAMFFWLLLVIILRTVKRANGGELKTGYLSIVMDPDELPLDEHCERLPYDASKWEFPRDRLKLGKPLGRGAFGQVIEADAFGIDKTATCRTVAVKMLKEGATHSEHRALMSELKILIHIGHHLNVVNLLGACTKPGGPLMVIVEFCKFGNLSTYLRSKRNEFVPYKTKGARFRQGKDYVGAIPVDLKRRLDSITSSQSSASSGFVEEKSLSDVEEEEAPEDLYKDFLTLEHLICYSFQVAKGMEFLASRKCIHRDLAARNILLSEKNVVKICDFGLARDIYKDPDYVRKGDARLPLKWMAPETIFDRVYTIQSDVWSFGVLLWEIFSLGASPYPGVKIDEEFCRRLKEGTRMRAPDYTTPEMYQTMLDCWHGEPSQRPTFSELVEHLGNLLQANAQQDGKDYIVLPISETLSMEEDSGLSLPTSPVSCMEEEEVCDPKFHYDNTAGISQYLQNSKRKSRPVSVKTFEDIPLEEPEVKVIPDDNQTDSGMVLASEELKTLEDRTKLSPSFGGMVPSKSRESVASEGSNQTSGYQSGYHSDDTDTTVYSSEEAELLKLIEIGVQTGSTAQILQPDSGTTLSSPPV

HOP-62 = assay: NCI 60 panel, NSCLC HOP-62; assay type: cell-based; settings: Homo sapiens, read-out: Tumor cell inhibitory activity (NCI) GI50
bovine brain tubulin = assay: inhibition of tubulin assembly; assay type: biochemical
MOLT-4 = assay: NCI 60 panel, Leukemia MOLT-4; assay type: cell-based; settings: Homo sapiens, read-out: Tumor cell inhibitory activity (NCI) GI50
MDA-MB-231/ATCC = assay: NCI 60 panel, Breast Cancer MDA-MB-231/ATCC; assay type: cell-based; settings: Homo sapiens, read-out: Tumor cell inhibitory activity (NCI) GI50
RXF 393 = assay: NCI 60 panel, Renal Cancer RXF 393; assay type: cell-based; settings: Homo sapiens, read-out: Tumor cell inhibitory activity (NCI) GI50
IGROVI = assay: NCI 60 panel, Ovarian cancer IGROVI; assay type: cell-based; settings: read-out: Tumor cell inhibitory activity (NCI) GI50
SNB-19 = assay: NCI 60 panel, CNS Cancer SNB-19; assay type: cell-based; settings: Homo sapiens, read-out: Tumor cell inhibitory activity (NCI) GI50
UACC-257 = assay: NCI 60 panel, Melanoma UACC-257; assay type: cell-based; settings: Homo sapiens, read-out: Tumor cell inhibitory activity (NCI) GI50
COLO 205 = assay: NCI 60 panel, Colon Cancer COLO 205; assay type: cell-based; settings: Homo sapiens, read-out: Tumor cell inhibitory activity (NCI) GI50
[2] = test system: NCI 60 tumor cell line panel; assay: NCI 60 tumor cell line panel, overall; assay type: cell-based
NCI-H460 = assay: NCI 60 panel, NSCLC NCI-H460; assay type: cell-based; settings: Homo sapiens, read-out: Tumor cell inhibitory activity (NCI) GI50
SK-MEL-5 = assay: NCI 60 panel, Melanoma SK-MEL-5; assay type: cell-based; settings: Homo sapiens, read-out: Tumor cell inhibitory activity (NCI) GI50
NCI/ADR-RES = assay: NCI 60 panel, Ovarian cancer NCI/ADR-RES; assay type: cell-based; settings: Homo sapiens, read-out: Tumor cell inhibitory activity (NCI) GI50
NCI-H226 = assay: NCI 60 panel, NSCLC NCI-H226; assay type: cell-based; settings: Homo sapiens, read-out: Tumor cell inhibitory activity (NCI) GI50
M14 = assay: NCI 60 panel, Melanoma M14; assay type: cell-based; settings: Homo sapiens, read-out: Tumor cell inhibitory activity (NCI) GI50

Structure (SMILES): COc1ccc(N(C)c2nc(C)nc3c(Cc4ccccc4)cn(C)c23)cc1 [Compound 4, 7-Benzyl-N-(4-methoxyphenyl)-N,2,5-trimethyl-5H-pyrrolo[3,2-d]pyrimidin-4-amine]
- GI50 (MDA-MB-468): 30.1 nM
- GI50 (SF-268): 350 nM
- GI50 (HOP-92): 47.1 nM
- GI50 (A498): 20.2 nM
- GI50 (SR): 33.8 nM
- GI50 (CAKI-1): 56.6 nM
- GI50 (CCRF-CEM): 33.5 nM
- potency against PDGFRβ, in words (PDGFRβ): potencies comparable with DMBI
- IC50 (PDGFRβ; whole-cell assay, read-out: kinase inhibition IC50 [whole-cell assays] PDGFRβ): 10.3 nM
- GI50 (SF-539): 25.4 nM
- GI50 (MDA-MB-435): 21.4 nM
- GI50 (HT29): 35.1 nM
- IC50 (EGFR): 2.3 ± 0.3 nM
- GI50 (SN12C): 88.7 nM
- GI50 (OVCAR-8): 49.1 nM
- GI50 (NCI-H522): 23.9 nM
- GI50 (MCF7): 33.3 nM
- GI50 (KM12): 44.5 nM
- IC50 (wild type HeLa cells): 14 ± 2 nM
- GI50 (HCC-2998): 71.1 nM
- GI50 (DU-145): 44.4 nM
- GI50 (SK-MEL-2): 28.6 nM
- GI50 (OVCAR-5): 269 nM
- IC50 [1]: 2200 ± 400 nM
- GI50 (LOX IMVI): 58.8 nM
- GI50 (SK-MEL-28): 48.7 nM
- GI50 (NCI-H23): 45.8 nM
- GI50 (RPMI-8226): 36.9 nM
- GI50 (OVCAR-3): 35.2 nM
- GI50 (HS 578T): 62.3 nM
- GI50 (ACHN): 172 nM
- GI50 (SF-295): 30.4 nM
- GI50 (UO-31): 209 nM
- GI50 (BT-549): 48.2 nM
- GI50 (786-0): 93.2 nM
- GI50 (U251): 44.3 nM
- GI50 (PC-3): 49.6 nM
- IC50 (VEGFR2): 33 nM
- GI50 (HOP-62): 47.8 nM
- IC50 (bovine brain tubulin; bovine tubulin): 480 ± 8 nM
- inhibition of bovine tubulin assembly, in words (bovine brain tubulin; compared with combretastatin A-4): effective and potent inhibitors
- GI50 (MOLT-4): 50.8 nM
- GI50 (MDA-MB-231/ATCC): 63.7 nM
- GI50 (RXF 393): 25.4 nM
- GI50 (IGROVI): 95.8 nM
- GI50 (SNB-19): 54.7 nM
- GI50 (UACC-257): 78.2 nM
- GI50 (COLO 205): 26.3 nM
- GI50 across the NCI 60 tumor cell line panel, in words [2]: 2- to 3-digit nanomolar
- GI50 (NCI-H460): 38.7 nM
- GI50 (SK-MEL-5): 54.2 nM
- GI50 (NCI/ADR-RES): 32.8 nM
- GI50 (NCI-H226): 304 nM
- GI50 (M14): 29.5 nM
